Entries after “also recorded” stand apart in the source; their conditions may differ.

Series [1] concerns diet-induced mouse model of obesity. The series is described as follows: Experiment I: diet-induced mouse model of obesity, body weight, fat pad weights, caloric intake. Type of series: in vivo, male C57BL/6J mice. An excerpt:
The following experiment involved a diet-induced mouse model of obesity. In particular, male C57BL/6J mice (these wildtype mice are genetically distinct from ob/ob and db/db mice and are not leptin-deficient) were placed on a high fat diet (HFD) or control diet (CON) at 8 wks of age, and MnTBAP or vehicle administration was initiated 5 months later, when all mice were at a steady state body weight. Mice receiving the CON diet served as lean control animals to those receiving the HFD diet. Each of the CON and HFD mice groups were then further divided into two groups. One of the CON and HFD groups was treated with 10 mg MnTBAP/kg of body weight for 30 days, and the other groups received a vehicle for 30 days. The term “vehicle” refers to the solvent used to deliver MnTBAP. In this experiment, MnTBAP was dissolved in 2% bicarbonate (pH 8.0) to a final concentration of 2 mg/mL. Vehicle-treated mice received a volume of vehicle that would have been sufficient to deliver 10 mg of MnTBAP per kg of body weight were the compound present. MnTBAP was purchased from A.G. Scientific Inc., San Diego, Calif. […] The above-identified doses of MnTBAP and vehicle were administered to the mice as daily intraperitoneal injections.
At the start of the treatment, there were no significant differences in body weight between MnTBAP and vehicle groups within each diet (CON: p=0.99; HFD: p=0.77). In addition, HFD mice were dramatically heavier than CON mice at the start of treatment (p<0.001).
Before and after treatment, insulin sensitivity (IS) was assessed using an insulin-assisted glucose tolerance test (IA-GTT) after a 16-hour fast. Fasting body weights were measured at the end of each fast just prior to initiation of the IA-GTT. Approximately 5-7 days after the post-treatment IA-GTT, mice were stimulated with insulin ten minutes prior to delivery of an anesthetic cocktail to induce deep anesthesia for harvesting of quadriceps, tibialis anterior, soleus, gastrocnemius, subcutaneous white adipose tissue (SWAT), epididymal white adipose tissue (EWAT), and liver. In addition, SWAT and EWAT weights were measured immediately after harvest. Tissues were snap frozen in liquid nitrogen and stored at −80° C. until analysis. One quadriceps muscle from each mouse was homogenized for biochemical analyses.
Fasting body weights; fed-state body weights; and plasma glucose levels at various times during the IA-GTT, a test used to assess insulin sensitivity, were compared after treatment using a 2×2 analysis of variance (ANOVA) with repeated measures. Here “repeated measures” refers to the time of glucose measurement during the IA-GTT: 0, 15, 30, 45, 60 min. Subcutaneous white adipose tissue weights; epididymal white tissue adipose weights; caloric consumption; and all biochemical data, such as UCP-2, UCP-3, and PKB expression, were compared using a 2×2 ANOVA without repeated measures.

The test system is the same in series [2]. In words: Experiment I: insulin-assisted glucose tolerance test (IA-GTT), insulin sensitivity. Type of series: in vivo, male C57BL/6J mice. The following applies: HFD mice, 10 mg/kg daily, after 16-hour fast. An excerpt: (§1) The following experiment involved a diet-induced mouse model of obesity. In particular, male C57BL/6J mice (these wildtype mice are genetically distinct from ob/ob and db/db mice and are not leptin-deficient) were placed on a high fat diet (HFD) or control diet (CON) at 8 wks of age, and MnTBAP or vehicle administration was initiated 5 months later, when all mice were at a steady state body weight. Mice receiving the CON diet served as lean control animals to those receiving the HFD diet. Each of the CON and HFD mice groups were then further divided into two groups. One of the CON and HFD groups was treated with 10 mg MnTBAP/kg of body weight for 30 days, and the other groups received a vehicle for 30 days. The term “vehicle” refers to the solvent used to deliver MnTBAP. In this experiment, MnTBAP was dissolved in 2% bicarbonate (pH 8.0) to a final concentration of 2 mg/mL. Vehicle-treated mice received a volume of vehicle that would have been sufficient to deliver 10 mg of MnTBAP per kg of body weight were the compound present. […]
(§2) Before and after treatment, insulin sensitivity (IS) was assessed using an insulin-assisted glucose tolerance test (IA-GTT) after a 16-hour fast. Fasting body weights were measured at the end of each fast just prior to initiation of the IA-GTT. […] In addition, SWAT and EWAT weights were measured immediately after harvest. […]

Series [3] has as its system uncoupling protein-3 (UCP3). The series is described as follows: Experiment I: UCP3 expression in skeletal muscle (quadriceps). Format: in vivo, male C57BL/6J mice.
From the text: as §1, §2

Series [4] has as its system protein kinase B (PKB). In words: Experiment I: PKB activity and expression in skeletal muscle (quadriceps). Type of series: in vivo, male C57BL/6J mice.
From the text: The following experiment involved a diet-induced mouse model of obesity. In particular, male C57BL/6J mice (these wildtype mice are genetically distinct from ob/ob and db/db mice and are not leptin-deficient) were placed on a high fat diet (HFD) or control diet (CON) at 8 wks of age, and MnTBAP or vehicle administration was initiated 5 months later, when all mice were at a steady state body weight. Mice receiving the CON diet served as lean control animals to those receiving the HFD diet. Each of the CON and HFD mice groups were then further divided into two groups. One of the CON and HFD groups was treated with 10 mg MnTBAP/kg of body weight for 30 days, and the other groups received a vehicle for 30 days. […]
as §2
In addition to affecting weight loss, MnTBAP has been shown by the above experiment to increase insulin sensitivity. […] It is noted that HFD mice were very insulin resistant before treatment (p<0.001), but a main effect for diet after treatment (p=0.3) was not detected, a result that underscores MnTBAP's effect on insulin action.

The subject of series [5] is diet-induced mouse model of obesity. In words: Experiment II: diet-induced mouse model of obesity, food intake and body weight. Format: in vivo, male C57BL/6J mice. The following applies: 10 mg/kg for 36 days. An excerpt: The following experiment involved a diet-induced mouse model of obesity. In particular, male C57BL/6J mice (these wildtype mice are genetically distinct from ob/ob and db/db mice and are not leptin-deficient) were placed on a high fat diet (HFD) or control diet (CON) at 8 wks of age, and MnTBAP or vehicle administration was initiated 6 months later, when all mice were at a steady state body weight. Mice receiving the CON diet served as lean control animals to those receiving the HFD. Each of the CON and HFD mice groups were then further divided into two groups. One of the CON and HFD groups was treated with 10 mg MnTBAP/kg of body weight for 36 days, and the other groups received a vehicle for 36 days. Food intake was measured on days 0, 3, 9, 14 and 35 post-treatment.

For series [6] the following is noted: cited from earlier work.
For series [7] the following is noted: many in ob/ob mice, younger mice; cited from earlier work.
The mark [8] stands for this setting: both CON and HFD mice, 10 mg/kg daily i.p. for 30 days.
The mark [9] stands for this setting: HFD mice, quadriceps, 10 mg/kg daily for four weeks.

On to `O=C(O)c1ccc(-c2c3nc(c(-c4ccc(C(=O)O)cc4)c4ccc([n-]4)c(-c4ccc(C(=O)O)cc4)c4nc(c(-c5ccc(C(=O)O)cc5)c5ccc2[n-]5)C=C4)C=C3)cc1.[Mn+3]` [MnTBAP, manganese [III] tetrakis (4-benzoic acid) porphyrin], for which the “share of weight loss due to decreased SWAT and EWAT fat deposits” value in series [1] (10 mg/kg daily i.p. for 30 days) is “approximately 50%”. Besides, the “treatment time until significant weight loss, fed state” value in series [1] (CON mice, 10 mg/kg daily i.p.) is recorded as 27 days. Besides, the “body weight less than vehicle-treated mice after treatment” value in series [1] (CON mice, 10 mg/kg daily i.p. for 30 days, vs CON vehicle) stood at 12.4%. Besides, in series [1] (HFD mice, 10 mg/kg daily i.p.), the “treatment time until significant weight loss, fed state” value is 15 days and the “weight loss after 30 days of treatment” value is given as “dramatic weight loss”. Moreover, the “body weight less than vehicle-treated mice after treatment” value in series [1] (HFD mice, 10 mg/kg daily i.p. for 30 days, vs HFD vehicle) amounted to 18.6%. For the same compound, in series [1] (setting [8]), the “EWAT weight compared to vehicle” value is reported as “dramatic reductions”, the “SWAT weight compared to vehicle” value is listed as “dramatic reductions”, the daily caloric intake entry is reported as “without affecting daily caloric intake” and the “fasting body weight compared to vehicle” value was “dramatic reductions”. Moreover, the “fasting body weight after treatment vs before treatment” value in series [1] (both HFD and CON mice, 10 mg/kg daily i.p. for 30 days) is recorded as “lower than before treatment”. Also, the “insulin sensitivity (IA-GTT)” value in series [2] is “significantly enhanced insulin sensitivity; also recorded: significantly improved insulin sensitivity”. In addition, in series [3] (CON mice, skeletal muscle, 10 mg/kg daily), the UCP3 levels entry is on record as “lack of a significant increase”. Besides, the “UCP3 expression greater than vehicle” value in series [3] (setting [9]) is reported as around 60%. The PKB expression entry in series [4] (CON mice, 10 mg/kg daily) is listed as “A statistically significant increase in PKB expression was not observed”. The “increase in activity and expression of PKB vs vehicle” value in series [4] (setting [9]) is given as around 60%. The “body weight and fat mass compared to vehicle-treated controls” value in series [5] (CON mice) was “lost a significant amount”. Further, the “food intake vs vehicle” value in series [5] (CON mice, days 0, 3, 9, 14 and 35) is “did not differ”. For the same compound, in series [5] (HFD mice), the “decrease in caloric intake over the course of the study” value is on record as 16.6% and the “food intake compared to vehicle-treated controls” value was “markedly decreased food intake”. Also, in series [6] (doses up to 10 mg/kg of body weight), the adverse side effects entry is listed as “no known adverse side effects”. In addition, the “mortality rates and age of death” value in series [6] (mice, up to a dose of 88 mg/kg of body weight) is reported as “does not increase mortality rates or decrease age of death”. The “body weight change in known studies” value in series [7] was “either no change in weight or slowed weight gain but did not induce weight loss”.

Source of the values: patent US8987245B2, “Composition and method for affecting obesity and related conditions” (priority 2008, dated 2015).
